# Results published in US11484601B2, “Targeting M2-like tumor-associated macrophages by using melittin-based proapoptotic peptide” (TWI[…]., priority 2018, dated 2022).
# System: M2 macrophage (RAW264.7 differentiated into M2-type with IL-4 and IL-13)
# Test: MTS cell viability assay, M2-type macrophage
# Format: cell-based, mouse
# Conditions: compared with MEL and DM1 alone
# Procedure: More specifically, dKLA (SEQ ID NO: 2), MEL (SEQ ID NO: 1), MEL-dKLA (SEQ ID NO: 3; […]-d[KLAKLAKKLAKLAK]) peptide and 5-carboxyl tetramethylrhodamine (TMR)-conjugated dKLA, MEL and MEL-KLA peptides were purchased from GenScript (Piscataway, N.J., USA). TMR was conjugated with the amino group located at the N-terminal of the peptide. Regarding all of the peptides, 95% or greater purified peptides were used. Murine Lewis lung carcinoma (LLC) cells and macrophage RAW264.7 of mice were cultured in Dulbecco's modified Eagle's medium (DMEM; Welgene, Korea) to which 10% heat-inactivated fetal bovine serum (Welgene), 100 U/mL penicillin and 100 μg/mL streptomycin (Invitrogen, CA, USA) were added. Macrophage (RAW264.7) differentiated into M2-type was treated with IL-4 and IL-13 in the medium for 24 hours. After the treatment, the cells were cultured in a state in which serum was insufficient for 48 hours. M1-type macrophage was treated with 1 ng/mL of LPS for 24 hours to induce differentiation.
# The cell viability test was measured via the MTS assay. RAW264.7 macrophage was differentiated into M1-type or M2-type macrophage which was inoculated onto a 96-well plate at 3×10^4 cells/well. The next day, the macrophage was treated with each of PBS, dKLA, MEL and MEL-dKLA. After 24 hours, the culture solution was replaced and the cell was treated with 20 μL MTS reaction solution (Promega, WI, USA), followed by reaction at 37° C. Then, […] was measured at 490 nm to measure cell viability.
# The MEL-DM1 anticancer drug conjugation method and cell test method are as described above.
substance,measurement,value
MEL-DM1: melittin with N-terminal maleimide covalently bound to the free-sulfhydryl group of maytansine DM1,M2 selective cell killing effect,higher M2 selective cell killing effect
